Measured values from patent US20120121753A1, “COMPOSITIONS AND METHODS FOR PREVENTION AND TREATMENT OF OBESITY AND OBESITY RELATED METABOLIC SYNDROME” (JINIS BIOPHARMACEUTICALS CO., priority 2009, published 2012).

Experiments:
[1] = tested on: Male SD rats; test: Effect of FARM3 on diet-induced obesity (4 weeks, obese rats); type: in vivo, rat; settings: 4 weeks of treatment
Text: The 3 month old male SD rats were given high-fat feed (described above) for 8 weeks to develop diet-induced obesity with average body weight of 425 g. The rats were randomly divided into groups (n=14 per group) and received fermented yogurt or drug under continued high-fat diet conditions: 3179 group (high fat diet with yogurt fermented by L. acidophilus KCTC 3179 strain), FARM3 group (high fat diet with yogurt fermented by FARM3 mutant), Orlistat™ (high fat diet with Xenical™ in an amount of 200 mg/kg diet).
The 3 month old male SD rats were given high-fat feed for 8 weeks to develop diet-induced obesity with average body weight of 425 g. The diet-induced obese rats were administered daily yogurt fermented with wild-type Lactobacillus 3179 (∘, high fat diet with yogurt fermented by L. acidophilus KCTC3179 strain), yogurt fermented with FARM3 ([…], high fat diet with yogurt fermented by FARM3) or Orlistat™ (Δ, high fat diet with Xenical™ 200 mg/kg diet) under continued high-fat diet condition for 4 weeks.

[2] = tested on: gastric and pancreatic lipase; settings: background statement; cited from earlier work

CCCCCCCCCCC[C@@H](C[C@@H]1OC(=O)[C@H]1CCCCCC)OC(=O)[C@H](CC(C)C)NC=O [Orlistat™, Orlistat]
oily feces [1]: oily feces
reduction of dietary fat absorption [2]: approximately 30%
